Measured values reported in ChEMBL document CHEMBL1124285, “Conformational analysis and structural comparisons of (1R,3S)-(+)- and (1S,3R)-(-)-tefludazine, (S)-(+)- and (R)-(-)-octoclothepin, and (+)-dexclamol in relation to dopamine receptor antagonism and amine-uptake inhibition” (J Med Chem, 1988).

Key:
Rattus norvegicus [1] = organism: Rattus norvegicus; assay: Inhibition of [3H]-dopamine uptake in rat brain synaptosomes; assay type: functional, organism-based
Rattus norvegicus [2] = organism: Rattus norvegicus; assay: Inhibition of [3H]norepinephrine uptake in rat brain synaptosomes; assay type: functional, organism-based
D(2) dopamine receptor = D(2) dopamine receptor (Rattus norvegicus, UniProt P61169); assay: Binding affinity against Dopamine receptor D2 using [3H]spiroperidol
Chain of D(2) dopamine receptor (P61169 whole entry): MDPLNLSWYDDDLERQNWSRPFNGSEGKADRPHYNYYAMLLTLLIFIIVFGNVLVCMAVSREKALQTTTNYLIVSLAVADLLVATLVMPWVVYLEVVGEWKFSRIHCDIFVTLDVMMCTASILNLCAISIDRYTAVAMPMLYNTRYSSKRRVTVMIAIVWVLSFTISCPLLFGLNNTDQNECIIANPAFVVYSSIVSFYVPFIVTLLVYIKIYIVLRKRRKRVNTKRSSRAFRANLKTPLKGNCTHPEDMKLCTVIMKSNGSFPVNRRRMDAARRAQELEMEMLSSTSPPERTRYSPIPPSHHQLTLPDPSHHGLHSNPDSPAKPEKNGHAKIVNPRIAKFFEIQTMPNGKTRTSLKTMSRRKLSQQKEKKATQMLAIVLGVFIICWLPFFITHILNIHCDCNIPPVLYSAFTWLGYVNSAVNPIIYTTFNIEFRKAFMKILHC

IC50 (Rattus norvegicus [1]; Rattus norvegicus, Brain, 3 h) [nM] | IC50 (Rattus norvegicus [2]; Rattus norvegicus, Brain, 3 h) [nM] | IC50 (D(2) dopamine receptor) [nM] | IC50 (Rattus norvegicus [1]) [nM] | IC50 (Rattus norvegicus [2]) [nM] | Compound
6300 | 0.64 |  |  |  | CN1CCN(C2Cc3ccccc3Sc3ccc(Cl)cc32)CC1 (racemic) [CLOROTEPINE]
 |  | 900 |  |  | CC(C)[C@@]1(O)CCN2C[C@@H]3c4ccccc4CCc4cccc(c43)[C@H]2C1 [DEXCLAMOL]
 |  |  | 9500 | 7400 | (-)-BUTACLAMOL
 |  | 6 |  |  | CC(C)[C@]1(O)CCN2C[C@H]3c4ccccc4CCc4cccc(c43)[C@@H]2C1
130 | 730 | 590 |  |  | OCCN1CCN([C@H]2C[C@H](c3ccc(F)cc3)c3ccc(C(F)(F)F)cc32)CC1
2200 | 15000 | 14 |  |  | OCCN1CCN([C@@H]2C[C@@H](c3ccc(F)cc3)c3ccc(C(F)(F)F)cc32)CC1 [TEFLUDAZINE]
